In patent US8945595B2, “Insect repellent and attractants” (The Regents of the University of California, priority 2009, dated 2015):
“Also recorded” adds a separate entry of the source.

Legend:
[1] = system: CO2-sensitive ab1C neurons; test: single-sensillum electrophysiology, baseline (spontaneous) activity of ab1C neurons; format: cell-based, Drosophila
Protocol: A number of individual odourants were tested for their ability to inhibit the baseline activity of the neuron using single-sensillum electrophysiology. […] Extracellular single-unit recordings were performed. Odourant stimuli were delivered via Pasteur pipette odour cartridges (see, FIG. 16). Chemicals were of the highest purity available, typically>99% (Sigma-Aldrich). All odourants were diluted in paraffin oil. A controlled volume of air 5 ml/sec was puffed through the odour cartridge containing vapours, and was delivered into a constant humidified airstream of 10 ml/sec that was passed over the fly antenna. […] CO2 stimulus was pulsed through a separate delivery system that delivered controlled pulses (variable 2.5 ml/sec-6.5 ml/sec) into the same humidified airstream, from either a 1%, 5% or 100% tank of CO2 (Airgas). […] Unless mentioned, responses were quantified by subtraction of spontaneous activity from activity during the stimulus. […] Both these compounds are present at electrophysiologically relevant concentrations in Drosophila food sources: 1-hexanol has been detected in various types of fruit including mango, melon, strawberry, passion fruit, muskmelon and banana; 2,3-butanedione is a natural by-product of fermentation by yeast and is thus also present in beer.

wild-type Drosophila = test: T-maze assay, avoidance to Drosophila stress odour (dSO); format: in vivo; conditions: odourant added to dSO
Protocol: T-maze behavior assay: a, Mean Preference Index (PI) of wild-type flies, given a choice between room air in 15 ml tube and either 0.1 ml of pure CO2 in a 15 ml tube (CO2), or binary mixtures of 0.1 ml pure CO2 and 1-hexanol (CO2+6ol) at 10^−1 dilution or 2,3-butanedione (CO2+d4on) at 10^−2 dilution, also in 15 ml tubes (see Methods). b, Mean PI of mutant flies given choices as in a. c, Mean PI of wild-type flies given choices between room air and odour collected from 70 untreated flies (mock), or 70 vortexed “emitter” flies of Drosophila stress odour (dSO), or mixtures of dSO with indicated odourants. n=6-9 trials (˜40 flies each), error bars=s.e.m. (T-test, *P<0.0001, **P<0.005, ***P<0.05).
T-maze behavioral testing using Drosophila stress odour, CO2, and mixtures were using techniques known in the art, with some modifications. In particular, the entire headspace from 15 ml capped “emitter” or “mock” fly tubes was withdrawn using fresh syringes and needles and infused into fresh capped 15 ml plastic tubes immediately prior to use in the T-maze. […] The avoidance response was calculated as a Preference Index (PI)=(number of flies in test arm−number of flies in control arm)/(total number of flies in assay). […] The avoidance response was calculated as a Preference Index (PI)=(number of flies in test arm−number of flies in control arm)/(total number of flies in assay). […]

CC(=O)C(C)=O [2,3-butanedione] was tested, and the “inhibition of spontaneous activity of ab1C neurons” value [1] was “strongly inhibit” and the “avoidance behavior to dSO (Preference Index)” value (wild-type Drosophila) was “significantly reduced avoidance behavior; also recorded: completely abolished”.
CCCCCCO [1-hexanol] was tested, and the “inhibition of spontaneous activity of ab1C neurons” value [1] was “strongly inhibit” and the “avoidance behavior to dSO (Preference Index)” value (wild-type Drosophila) was “significantly reduced avoidance behavior”.
